101 compounds from PubChem BioAssay AID1985 (Southern Research Specialized Biocontainment Screening …, 2009) can be followed below.

For the test, the system named is S. Typhi PhoP-promoter GFP reporter, fluorescence, 4 h. In words: PhoP regulon inhibitor project modified counter assay, GFP fluorescence readout, dose response (AID 1985).
With `O=C(N/N=C\c1ccc(Cl)s1)c1cccs1`, the IC50 is 32.9 µM. For the compound `O=[N+]([O-])c1ccc(/C=N/NC(=S)Nc2ccc(Cl)cc2Cl)s1`, the half-inhibitory concentration (IC50) is 25 µM. Consider `O=C(O)c1cc2c(cn1)[nH]c1ccccc12`, for which the IC50 was 73 µM. In the case of `Cc1cc(OCCCCCN2CCCC2)ccc1Cl`, the IC50 is 112 µM. As to `Cc1ccc(CNCCC2=CCCCC2)cc1`, the IC50 is 81.9 µM. For the compound `OCCNc1nc(Nc2ccc(Br)cc2)nc2ccccc12`, the IC50 is 19 µM. Take `Oc1c(I)cc(Cl)c2cccnc12`: the IC50 was 8.07 µM.

Consider `Cc1ccc(C(=O)Sc2cccccc2=O)cc1`, for which the IC50 is 1.97 µM. Regarding `COc1cccc(Nc2cc(C)nc3ccccc23)c1`, the half-inhibitory concentration (IC50) was 98.8 µM.

Regarding `CCCCCC(CC(=O)NO)C(=O)NC(C(=O)N1CCCC1CO)C(C)C` (stereo unspecified), the IC50 was 13.7 µM.

Turning to `O=[N+]([O-])c1cc(Cl)cc(/C=N/NC(=S)Nc2ccc(S(=O)(=O)N3CCOCC3)cc2)c1O`, the IC50 is 46.3 µM. As to `O=C(N/N=C/c1ccccc1O)c1ccncc1`, the IC50 was 24.7 µM. For `Nc1[nH]ncc1-c1ccccc1` the value was 31.9 µM; for `CCN(CCC(=O)Nc1ccc(Br)c(C)c1)Cc1ccccc1`, 79.8 µM; for `O=C(N/N=C/c1c[nH]c2ccccc12)c1cccc(O)c1`, 130 µM. On to `CCn1cc(C(=O)O)c(=O)c2ccc(C)nc21`, for which the half-maximal inhibitory concentration (IC50) was 76.6 µM.

As to `CC(C(=O)NC1C=CS(=O)(=O)C1)N1C(=O)/C(=C/c2ccc(Cl)cc2)SC1=S` (stereo unspecified), the IC50 was 22.2 µM. `Oc1c(Br)cc(Br)cc1C=NCc1ccc(F)cc1`: the IC50 was 54.4 µM.

On to `CCCCOc1ccc(NC2=NC3(CCCC3)N=C(N)N2)cc1`, for which the 50% inhibitory concentration (IC50) was 72.9 µM. As for `Cc1ccsc1/C=N/Nc1ccc(C(=O)O)cc1`, the IC50 was 94.2 µM. Consider `CC(C)(c1ccccc1)c1ccc(OCCCNCCO)cc1`, for which the IC50 was 93.5 µM. As for `CNCc1c(OCc2ccccc2F)ccc2ccccc12`, the IC50 was 127 µM. For `CSc1cccc(NC(=O)/C=C/c2ccccc2)c1` the value was 84.9 µM; for `C#CCOCCOCCOCCNc1nc(N2CCN(C(=O)CCCCCCCCCCNC(=O)[C@H](CCCCN)n3cc(C[C@@H](C)CC)nn3)CC2)nc(N2CCN(C(=O)CCCCCCCCCCNC(=O)[C@@H]([C@H](C)O)n3cc(C)nn3)CC2)n1`, 138 µM; for `CCCCCCCCCCCCCCCC[n+]1ccc(/C=N/O)cc1`, 34.2 µM. For `C1=C(CCNc2ncnc3c2[nH]c2ccccc23)CCCC1` the value was 115 µM. Take `Oc1ccccc1Nc1nc(NCc2ccco2)c2ccccc2n1`: the IC50 was 137 µM. `C=C1c2cccc(O)c2C(O)=C2C(=O)[C@]3(O)C(O)=C(C(N)=O)C(=O)[C@@H](N(C)C)[C@@H]3[C@@H](O)[C@H]12`: the IC50 is 0.376 µM. Regarding `O=C(CSc1ccccn1)Nc1nonc1[N+](=O)[O-]`, the IC50 is 43.5 µM. For the compound `O=C(Nc1ccc2nc(-c3ccc(Br)o3)[nH]c2c1)c1cccs1`, the 50% inhibitory concentration (IC50) is 78.7 µM. In the case of `COc1cc(/C=C/[N+](=O)[O-])ccc1O`, the IC50 is 53.4 µM.

Take `CCOC(=O)N/N=C\c1ccc([N+](=O)[O-])o1`: the concentration for half-maximal inhibition (IC50) is 23.7 µM. Regarding `CCC(/C=C1\Sc2ccc(OC)cc2N1CCO)=C\c1sc2ccc(OC)cc2[n+]1CCO`, the IC50 is 95 µM.

Turning to `CCn1cc(C(=O)O)c(=O)c2cc(F)c(N3CCN(C(=S)NC(=O)c4cccc(C)c4)CC3)cc21`, the half-maximal inhibitory concentration (IC50) was 8.37 µM. Turning to `N/C(=N\OS(=O)(=O)c1ccc2ccccc2c1)c1cccnc1`, the IC50 was 14.2 µM.

In the case of `COc1cccc(/C=N/NC(=O)c2ccoc2C)c1O`, the IC50 was 88.1 µM. Take `Cc1ccc(Nc2c3c(nc4ccccc24)CCC3)cc1`: the IC50 was 39.8 µM. As for `Fc1ccc(Nc2c3c(nc4ccccc24)CCC3)cc1`, the IC50 is 85 µM. Regarding `O=C(Nc1nonc1NC(=O)c1cccs1)c1cccs1`, the IC50 is 100 µM. For the compound `CC[C@H]1OC(=O)[C@H](C)[C@@H](O[C@H]2C[C@@](C)(OC)[C@@H](O)[C@H](C)O2)[C@H](C)[C@@H](O[C@@H]2O[C@H](C)C[C@H](N(C)C)[C@H]2O)[C@](C)(OC)C[C@@H](C)C(=O)[C@H](C)[C@@H](O)[C@]1(C)O`, the IC50 is 125 µM.

Take `C/C(=N\NC(=O)c1ccc(Cl)cc1)c1ccccn1`: the IC50 was 48.3 µM. `COc1ccc2[nH]c3c(C)c4ccncc4c(C)c3c2c1`: the half-maximal inhibitory concentration (IC50) was 39.2 µM. `CCCCCCCCC[n+]1cccc2c3ccccc3ccc21`: the IC50 was 26.8 µM. As to `CC(NCc1ccc(Cl)c(Cl)c1)C(O)c1ccccc1` (stereo unspecified), the IC50 was 82.3 µM. Turning to `N#C/C(N=Nc1ccccc1O)=N\Nc1ccccc1O`, the half-inhibitory concentration (IC50) was 9.47 µM. For the compound `N/C(=N\N=C/c1ccc(F)cc1)N/N=C\c1ccc(F)cc1`, the IC50 was 75.1 µM. As for `O=C(NNc1nc2ccc(F)cc2s1)c1cccc(F)c1`, the IC50 was 148 µM. In the case of `O=C(Cn1cncn1)N/N=C/c1ccccc1O`, the IC50 was 103 µM.

Regarding `O=C(Nc1ccc([N+](=O)[O-])cc1Cl)c1cc(Cl)ccc1O`, the IC50 was 76 µM. With `Cc1ccc(Cn2c(=N)n(CC(O)COc3ccccc3)c3ccccc32)cc1` (stereo unspecified), the half-maximal inhibitory concentration (IC50) is 83.6 µM.

In the case of `CCCCCCOC(=O)C[N+](C)(C)CCOC1CC2CCC1(C)C2(C)C` (stereo unspecified), the IC50 was 48 µM. Regarding `C=CCNc1ncnc2c1[nH]c1ccc(Cl)cc12`, the IC50 is 49.2 µM.

For `Cc1nnc(N/N=C/c2ccccn2)[nH]c1=O`, the IC50 is 31.1 µM. Regarding `COc1ccc(CNc2ncnc3c2[nH]c2ccccc23)cc1`, the IC50 is 59.2 µM. As for `CCCOc1ccc(S(=O)(=O)n2cc(F)c(=O)[nH]c2=O)cc1`, the IC50 is 42.2 µM. On to `N=c1n(Cc2ccc(Cl)cc2)c2ccccc2n1CC(O)COc1ccccc1` (stereo unspecified), for which the IC50 was 66.8 µM. On to `CS(=O)(=O)c1ccc([C@@H](O)[C@@H](CO)NC(=O)C(Cl)Cl)cc1`, for which the IC50 is 19.7 µM.

On to `Oc1[nH]c2ccccc2c1N=NC(=S)N1CCOCC1`, for which the IC50 is 17.4 µM. On to `O=[N+]([O-])c1cc(F)c2cccnc2c1O`, for which the IC50 was 4.83 µM. Regarding `COc1ccc(/C=N/Nc2cc(C)nc3c(C)cccc23)cc1`, the IC50 was 37.2 µM. On to `O=C(/C=C/c1ccco1)NC(=S)NNC(=O)c1ccco1`, for which the IC50 was 111 µM. With `C[C@H]1O[C@@H](n2cc(F)c(=O)[nH]c2=O)[C@H](O)[C@@H]1O`, the IC50 was 13.2 µM. Regarding `c1ccc(Nc2nc(NCC3CCCO3)c3ccccc3n2)cc1` (stereo unspecified), the IC50 is 16.8 µM. For `Fc1cccc(Nc2c3c(nc4ccccc24)CCC3)c1` the value was 126 µM. For the compound `O=C(Nc1cccc(NC(=O)c2ccccc2Cl)c1)c1ccc([N+](=O)[O-])o1`, the IC50 was 17.5 µM. To `CCCC(=O)NC(c1ccco1)c1cc([N+](=O)[O-])c2cccnc2c1O` (stereo unspecified) belongs 8.65 µM; to `CCN(CCNCC(O)COc1ccccc1C(C)C)c1cccc(C)c1` (stereo unspecified), 72.6 µM. Turning to `O=C(Cn1nc(CNc2ccc(Cl)cc2)[n+]2c1CCCCC2)c1ccc(Br)cc1`, the IC50 was 77.5 µM. Regarding `CN1C(=O)NC(c2cccc(O)c2)C(C(=O)c2cccs2)C1(O)C(F)(F)F` (stereo unspecified), the IC50 is 40.6 µM.

In the case of `O=C1CN(/N=C/c2ccc([N+](=O)[O-])o2)C(=O)N1`, the IC50 was 32.2 µM. `Cc1cccc(Nc2cc(C)c3c(O)cccc3n2)c1C`: the IC50 is 49.6 µM.

As for `CC(=O)OC1=C(O)C(=O)c2ccccc2C1=O`, the IC50 is 78.6 µM. To `O=C(N/N=C/c1cc(Cl)ccc1O)c1ccncc1` belongs 22 µM; to `CCCCCCCCCCOC(=O)Cn1c(COc2ccc(Cl)cc2)[n+](C)c2ccccc21`, 15.7 µM; to `O=c1[nH]c2ccccc2n2c(=S)[nH]nc12`, 68.5 µM. For `[O-][n+]1c2c(c3c4non(O)c4ccc31)CCCC2`, the IC50 was 130 µM. As for `O=C(NC(=S)NNC(=O)c1cnccn1)c1ccc(F)cc1`, the IC50 is 25.1 µM. With `Oc1ccccc1C(Nc1nccs1)c1ccc2cccnc2c1O` (stereo unspecified), the IC50 is 34.8 µM. For `Cc1cccc(OCC(O)Cn2c(=N)n(CCN3CCCCC3)c3ccccc32)c1` (stereo unspecified) the value was 50.2 µM; for `O=C(Oc1c(Cl)cc(Cl)c2cccnc12)c1ccco1`, 11.9 µM; for `CNc1nc(SC)n(C)c(=O)c1N=O`, 80.3 µM. Consider `O=C(CCC(=O)Nc1ccc(Cl)cc1Cl)N/N=C/c1ccc([N+](=O)[O-])o1`, for which the half-inhibitory concentration (IC50) was 33.9 µM. `CSc1nc2ccc(Cl)cc2[nH]1`: the IC50 is 50.4 µM.

In the case of `CCN1CCN(C(=O)c2cc3cc(Cl)ccc3[nH]2)CC1`, the IC50 is 67.4 µM. Consider `CCCCCCCCNC(C)C(O)c1ccc(SC(C)C)cc1` (stereo unspecified), for which the IC50 is 41.8 µM. Consider `C=CCNc1ncnc2c1[nH]c1ccc(C)cc12`, for which the IC50 is 56.3 µM.

For the compound `O=C(Nc1nnc(-c2ccco2)o1)c1cccc(Cl)c1`, the IC50 was 40 µM. For `CC(=O)Nc1ccc(S(=O)(=O)NNc2cccc(C)c2)cc1` the value was 58.9 µM; for `Cc1ccc(NC(=O)C(=O)NNC(=O)c2cccs2)cc1`, 13.2 µM; for `O=C(CCN1CCOCC1)c1ccc(Br)cc1`, 129 µM. On to `Clc1ccc(OCCCNCc2ccccc2)c(Br)c1`, for which the IC50 is 43.8 µM.

Turning to `CO[C@H]1/C=C/O[C@@]2(C)Oc3c(C)c(O)c4c(O)c(c(C=NN5CCN(C)CC5)c(O)c4c3C2=O)NC(=O)/C(C)=C\C=C\[C@H](C)[C@H](O)[C@@H](C)[C@@H](O)[C@@H](C)[C@H](OC(C)=O)[C@@H]1C`, the IC50 was 32.6 µM.

Turning to `OCCCCNCc1ccc(OCc2ccc(Cl)cc2Cl)cc1`, the IC50 was 133 µM. In the case of `Nc1nnnn1/N=C/c1cc([N+](=O)[O-])ccc1O`, the concentration for half-maximal inhibition (IC50) is 91.5 µM. As for `Cc1cc(C(C)(C)CC(C)(C)C)ccc1OCCOCC[N+](C)(C)Cc1ccccc1`, the half-maximal inhibitory concentration (IC50) was 31.6 µM. Consider `NC1=NC[C@H](Cc2ccc(O)cc2)N1CCCCC1CCCCC1`, for which the IC50 is 25.5 µM. On to `Cc1ccc(C(=O)N/N=C\c2ccc([N+](=O)[O-])s2)cn1`, for which the IC50 was 20 µM.

Consider `Cc1ccc(-c2c[n+](CC(=O)Nc3nc(-c4ccccc4)cs3)c3n2CCC3)cc1`, for which the IC50 is 90.4 µM. As to `COc1cc(/C=C2/C(=O)NN(c3ccc(C)c(Cl)c3)C2=O)cc([N+](=O)[O-])c1O`, the IC50 is 46.6 µM. To `Cc1c(CCOC(=O)C2C3CC4CC(C3)CC2C4)sc[n+]1CC(=O)c1ccc(Br)cc1` (stereo unspecified) belongs 56.9 µM; to `CCn1cc(C(=O)NCc2ccc3c(c2)OCO3)c(=O)c2cc(F)c(N3CCN(C(=O)c4ccco4)CC3)cc21`, 107 µM.

One may read the IC50 as the concentration at which inhibition is half-maximal.
